Data: US20090186024A1, “Gene Expression Signatures for Oncogenic Pathway Deregulation” (priority 2005, published 2009)

Tested on: breast cancer cell lines
Assay: Cell proliferation assays (growth inhibition, standard MTT/MTS colorimetric assay)
Assay type: cell-based
Details: 96 hrs, versus DMSO controls, FIG. 4B
Protocol: FIGS. 4A-4B show pathway deregulation in breast cancer cell lines predicts drug sensitivity. A. Pathway predictions in breast cancer cell lines. The results plotted show images of the predicted probability of pathway activation (red indicates high probability, blue indicates low probability). B. Sensitivity to pathway-specific drugs. Left panel. Cells were treated with 3.75 μM of farnesyltransferase inhibitor (L-744,832) for 96 hrs. Proliferation was assayed using a standard MTS tetrazolium colorimetric method. The degree of proliferation inhibition was plotted as a function of probability of Ras pathway activation as determined in panel A. Middle panel. Same as in left panel but using farnesylthiosalicylic acid (200 μM). Right panel. Same as in left panel but using the Src pathway inhibitor SU6656 (1.5 μM), and with the degree of proliferation inhibition plotted as a function of Src pathway activation. […]
Cell and RNA preparation. […] Expression of oncogenes and their secondary targets was determined by a standard Western Blotting protocol using a TGH lysis buffer (1% Triton X-100, 10% glycerol, 50 mM NaCl, 50 mM Hepes, pH 7.3, 5 mM EDTA, 1 mM sodium orthovanadate, 1 mM PMSF, 10 μg/ml leupeptine, 10 μg/ml aprotinin). […] Protein quantitation of lysates was determined by BCA [Pierce] prior to electrophoresis with a 10-12% SDS-PAGE gel. Activation status of kinase pathways for the breast cancer cell lines was determined for growing cells (at 75% confluency) 48 hours after plating using the following methods. Ras activation is measured using a Ras Activation Assay Kit (Upstate Biotechnology) that consists of a GST fusion-protein corresponding to the human Ras Binding Domain (RBD, residues 1-149) of Raf-1. […] Western Blotting for immunoprecipitated H/K-Ras is detected using an H/K-Ras specific antibody (Santa Cruz Biotechnology, #sc-520 and sc-F234). c-Src activation was determined by Western Blotting using a phospho-Tyr416 Src antibody (Cell Signaling, #2101). […]

| SMILES | relation between probability of Ras pathway deregulation (gene expression prediction) and extent of cell proliferation inhibition by the drug | relation between probability of Src pathway deregulation (gene expression prediction) and extent of cell proliferation inhibition by the drug |
| --- | --- | --- |
| CC(C)=CCCC(C)=CCCC(C)=CCSc1ccccc1C(=O)O [FTS, farnesylthiosalicylic acid] | close concordance and correlation |  |
| CN(C)S(=O)(=O)c1ccc2c(c1)/C(=C/c1cc3c([nH]1)CCCC3)C(=O)N2 [SU6656] |  | close concordance and correlation |
| CC[C@H](C)[C@@H](CO[C@@H](Cc1ccccc1)C(=O)N[C@@H](CCS(C)(=O)=O)C(=O)OC(C)C)NC[C@@H](N)CS [L-744,832] | close concordance and correlation |  |
